The values that follow come from patent publication US20220401408A1, “COMPOSITIONS AND METHODS FOR RESCUING RETINAL AND CHOROIDAL STRUCTURE AND FUNCTION” (AUCKLAND UNISERVICES LIMITED, priority 2019, published 2022).

For one data set, the system named is hyperglycemic rats. Description: ERG in hyperglycemic rat diabetic retinopathy model. The format is in vivo, SD rats (spontaneously hyperglycemic strain). The source says:
Hyperglycemic Rat Diabetic Retinopathy Model—A spontaneously hyperglycemic strain of SD rats, which developed clinical signs of diabetic retinopathy within 4 weeks of birth were identified and isolated within the Vernon Jansen Animal Research Unit, Faculty of Medical and Health Sciences at the University of Auckland. The identification of these rats presenting with hyperglycemia and microaneurysms provided an opportunity to treat a complex, chronic disease model and assess the treatment effect based upon objective, measurable endpoints, despite lacking precise information on the etiology of the disease. Inbreeding was carried out over three generations and eyes were screened for abnormalities between 4-8 weeks of age. Additional information about these rats is presented as supplementary information. Glucose levels were tested in non-fasting rats (Lee J J, Yi H Y, Yang J W, Shin J S, Kwon J H, Kim C W. Characterization of streptozotocin-induced diabetic rats and pharmacodynamics of insulin formulations. Biosci Biotechnol Biochem. 2003; 67:2396-401) using a Freestyle Optium Glucometer (Abbott Laboratories Ltd., UK) and Freestyle Optium glucose strips.
(§1) Ten rats per group were the selected (10 normal SD and 10 hyperglycemic) grown to 5 weeks of age and assessed using OCT and ERG. The hyperglycemic rat group was then split into two subgroups of five, with one subgroup fed tonabersat once daily for 14 days from weeks 5 to 7 at a low dose level of 0.28 mg/kg in 0.5 g peanut butter, with the other subgroup fed 0.5 g peanut butter only. All animals were assessed again using ERG and OCT at 8 weeks of age before euthanizing animals and removing the eyes for immunohistochemical analysis. Data groups were randomized prior to the statistical comparison. In summary, normal SD and hyperglycemic rats were analyzed with OCT and ERG at 5 weeks of age; the hyperglycemic rats were then split into two groups and fed the vehicle or tonabersat for 14 days during weeks 6 and 7 of age. At week 8, animals were again assessed with ERG and OCT and tissues collected for immunohistochemical analysis. Four tonabersat-treated rats were, however, left until 3 months of age before final ERG and OCT and tissue collection.
Electroretinogram Recording—The procedure was performed as described previously. Vessey K A, Wilkinson-Berka J L, Fletcher E L. Characterization of retinal function and glial cell response in a mouse model of oxygen-induced retinopathy. J Comp Neurol. 2011; 519:506-27. Essentially, SD rats were dark-adapted overnight for 12-14 hours before the ERG recording. For the dry AMD, the ERG baseline was recorded for all groups before light damage and at time points after the light damage insult (24 hours, 1 week, 2 weeks and 3 months post intense light). For the DR model, ERGs were recorded at 5 weeks of age to compare normal SD and hyperglycemic rat retinal function. Tonabersat treated and vehicle control hyperglycemic rats were assessed again at 8 weeks of age. After dark adaptation, rats were anaesthetized by an intraperitoneal injection of a combination of ketamine (75 mg/kg, Parnell Technologies, New Zealand) and domitor (0.5 mg/kg, Pfizer, New Zealand). A dim red light generated by a light-emitting diode (λmax=650 nm) was used during manipulations of dark-adapted animals. The corneas were maintained hydrated with 1% carboxymethylcellulose sodium (Celluvisc, Allergan, USA) during ERG recording. Right and left eye ERGs were recorded using gold ring electrodes (Roland Consult Stasche & Finger GmbH, Germany). A U-shaped active electrode was kept in contact with the center of the cornea. […] Normal body temperature was maintained to avoid temperature-driven ERG amplitude fluctuation by placing animals on a 37° C. heated pad. Full-field ERG responses were elicited by a twin-flash ([…] stimulus interval) generated from a photographic flash unit (Nikon SB900 flash, Japan), via a Ganzfeld sphere. […]

The next data set has as its system GFAP, Connexin43, Iba-1. Description: Immunohistochemical labelling of GFAP, Iba-1 and Connexin43 in hyperglycemic rat retina. The class given is in vivo, SD rats (spontaneously hyperglycemic strain). The settings on record: dosed daily for 14 days, 8 weeks of age. The procedure:
as §1
Tissue Collection and Processing—At the end of the final OCT recording rats was deeply anesthetized using a combination of ketamine (75 mg/kg, Parnell Technologies, New Zealand) and domitor (0.5 mg/kg, Pfizer, New Zealand). Animals were perfused transcardially with saline for 2-3 min followed by 30 min perfusion with 4% paraformaldehyde in a 0.1 M phosphate buffer, pH 7.4 (PB). Eyes were dissected from the orbit and the eyecups further immersion fixed in 4% paraformaldehyde, 30 min before washing in PB. Tissues were then cryo-protected by taking them though 10% and 20% sucrose/PB solutions at room temperature for 30 min each, before soaking in 30% sucrose/PB at 4° C. overnight. The tissue was then embedded in optimum cutting temperature compound (Sakura Finetek, Torrance, USA) for cryosectioning (16 μm section thickness) in the vertical plane using a Leica CM3050 S cryostat (Leica, Germany). Sections were collected on Superfrost Plus slides (Labserv, New Zealand) for immunohistochemical labelling. For the DR animals we collected spleen, pancreas, liver, heart and kidneys from randomly selected vehicle-injected animals (see supplementary information).
Immunohistochemical Labelling of Tissue Sections—Frozen tissue sections were air-dried at room temperature for 10-15 min and washed with 0.1 M PB. Sections were encircled with a PAP pen (Invitrogen, New Zealand) to form incubation wells and blocked with 6% normal goat serum or donkey serum (Invitrogen, USA), 1% bovine serum albumin (BSA) and 0.5% Triton X-100 in 0.1 M PB for 1 hour at room temperature. […]

[1] abbreviates: 0.28 mg/kg once daily 14 days, week 8, p<0.001.
Where [2] appears, read: 0.28 mg/kg once daily 14 days, week 8, p<0.01.
[3] abbreviates: significantly less than untreated, p<0.001.

As for `CC(=O)c1ccc2c(c1)[C@H](NC(=O)c1ccc(F)c(Cl)c1)[C@H](O)C(C)(C)O2` [tonabersat, N-[(3S,4S)-6-acetyl-3-hydroxy-2,2-dimethyl-3,4-dihydrochromen-4-yl]-3-chloro-4-fluorobenzamide], the mixed ERG a-wave, maximum intensity with hyperglycemic rats (0.28 mg/kg once daily 14 days, 8 weeks, untreated −370 V) is -630 µV. Also, in the data set on hyperglycemic rats (0.28 mg/kg once daily 14 days, week 8), the implicit times entry is “not different”. Besides, in the data set on hyperglycemic rats (0.28 mg/kg once daily 14 days, week 8, all intensities, p<0.001), the mixed b-wave signals entry is on record as “significantly recovered”. The “mixed ERG a-wave vs untreated” value in the data set on hyperglycemic rats (0.28 mg/kg once daily 14 days, week 8, intensities 0.1-2.1 cd·s/m2, p<0.001) is “significantly higher”. For the same compound, in the data set with hyperglycemic rats (setting [1]), the “rod PII amplitude” value is recorded as “significantly recovered” and the “rod PIII amplitude” value was “significantly recovered”. Moreover, in the data set on hyperglycemic rats (setting [2]), the “cone PII amplitude” value is “significantly recovered” and the “summed OPs amplitude” value was “significantly recovered”. Also, in the data set on hyperglycemic rats (0.28 mg/kg once daily 14 days, week 8, untreated controls 400 V), the mixed b-wave, maximum intensity stood at 700 µV. Moreover, in the data set on hyperglycemic rats (0.28 mg/kg oral once daily 14 days (weeks 5 to 7), week 8), the “retinal function compared to vehicle hyperglycemic rats” value is on record as “significantly recovered”. Besides, in the data set on GFAP, Connexin43, Iba-1, the “inflammation (labeling for GFAP, Iba-1, Connexin43)” value is reported as “reduced inflammation”. Moreover, in the data set with GFAP, Connexin43, Iba-1 (setting [3]), the “Connexin43 labelling, quantification” value is “recovering to normal”; the “GFAP labelling, quantification” value is listed as “recovering to normal”; the “Iba-1 labelling, quantification” value is “recovering to normal”.
